Data: ChEMBL document CHEMBL1201862, “PubChem BioAssay data set” (2004)
Active and inactive are the calls of the source.

Tests used:
[1] = CEM21 lymphoblast cell cytotoxicity, dose response, cytotoxicity control for viral fusion inhibitor project, CellTiter-Glo luminescence, cherry-picked (AID 652042); assay type: functional, cell-based;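 note: potency for signal decrease meaning cytotoxicity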
[2] = ZM109 Env clade C HIV-1 fusion inhibitors, dose response, HeLa effector, CEM target cells, luciferase, cherry-pick (AID 652058); assay type: functional, cell-based
[3] = inhibitors of clade B AD8 Env fusion, dose response, cell-based, cherry-pick (AID 652062); assay type: functional;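 note: luciferase signal from cell-cell fusion driven by HIV-1 clade B AD8 Env; potency is for inhibitors of fusion seen as a drop in luminescence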
[4] = inhibitors of HIV Env-driven cell fusion, dose response, cherry-pick (AID 652057); assay type: functional, cell-based
[5] = off-target signal loss in HeLa-CEM21 co-culture – HeLa F-luc CTL cells, cherry-picked, counter-screen for HIV-1 Env fusion inhibitor project, dose response (AID 652040); assay type: functional, cell-based;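 note: potency for signal decrease marking cytotoxic or nonspecific inhibition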
[6] = NIH/3T3 fibroblast cytotoxicity, dose response, cytotoxicity control for T. cruzi growth inhibitor project, cell-based, cherry-pick samples, set 2 (AID 651817); assay type: functional; settings: NIH3T3
[7] = intracellular Trypanosoma cruzi inhibitors in host cells – cell-based, plate reader, cherry-pick samples, set 3, dose response (AID 651818); assay type: functional;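 note: compounds incubated with infected cells for about four days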
[8] = HEK293 cell viability, dose response, counter-screen for EBV LMP1 inhibitor project, dry powder, set 2 (AID 624374); assay type: functional
[9] = target: Metabotropic glutamate receptor 3 (Rattus norvegicus, UniProt P31422); experiment: mGlu3 NAM potency via calcium readout, dose response, mGlu3 NAM project, TREx293 cells, Galpha15, calcium flux (AID 651840); assay type: functional
Chain of Metabotropic glutamate receptor 3 (P31422 whole entry): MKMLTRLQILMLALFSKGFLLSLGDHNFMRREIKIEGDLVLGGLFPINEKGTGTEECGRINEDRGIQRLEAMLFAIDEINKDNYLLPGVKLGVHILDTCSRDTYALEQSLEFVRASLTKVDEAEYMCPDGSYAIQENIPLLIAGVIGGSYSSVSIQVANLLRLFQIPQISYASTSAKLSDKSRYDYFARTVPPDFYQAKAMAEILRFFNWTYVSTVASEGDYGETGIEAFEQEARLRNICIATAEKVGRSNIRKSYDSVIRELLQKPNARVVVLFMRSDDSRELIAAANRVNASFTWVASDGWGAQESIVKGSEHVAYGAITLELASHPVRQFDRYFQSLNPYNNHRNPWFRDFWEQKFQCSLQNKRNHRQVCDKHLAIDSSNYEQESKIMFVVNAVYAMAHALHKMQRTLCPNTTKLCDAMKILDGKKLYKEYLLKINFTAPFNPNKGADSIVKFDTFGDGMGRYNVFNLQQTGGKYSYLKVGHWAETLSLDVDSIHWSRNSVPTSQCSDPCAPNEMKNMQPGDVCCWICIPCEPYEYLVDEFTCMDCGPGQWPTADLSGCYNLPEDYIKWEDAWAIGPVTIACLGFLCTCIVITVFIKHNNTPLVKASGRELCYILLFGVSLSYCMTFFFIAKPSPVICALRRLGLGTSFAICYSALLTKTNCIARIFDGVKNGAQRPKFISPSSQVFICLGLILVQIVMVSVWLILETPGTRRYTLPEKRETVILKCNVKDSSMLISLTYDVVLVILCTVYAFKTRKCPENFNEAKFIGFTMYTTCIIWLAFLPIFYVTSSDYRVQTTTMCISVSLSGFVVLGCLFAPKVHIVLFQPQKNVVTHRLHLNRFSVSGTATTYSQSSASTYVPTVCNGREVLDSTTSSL

[10] = A Cell-Based Confirmatory Screen for Compounds that Inhibit VEEV, TC-83 (8).; assay type: functional
[11] = Late stage assay provider results from the probe development effort to identify inhibitors of the Plasmodium falciparum M17 Leucine Aminopeptidase (M17LAP): radiolabel-based cell-based dose response assay to identify compounds that inhibit P. falciparum growth in RBCs Set 2.; assay type: functional

## Cc1cc(C)nc(Nc2nc(C(N)CCc3ccccc3)cs2)n1 (stereo unspecified)
[1]
  AC50: 40.1 µM (active)
[2]
  AC50: 3.65 µM (active)
[3]
  AC50: 18.2 µM (active)
[4]
  AC50: 4.75 µM (active)
[5]
  AC50: 6.75 µM (active)

## C[C@@H]1CN([C@@H](C)CO)C(=O)c2cccc(NC(=O)c3ccncc3)c2O[C@H]1CN(C)Cc1ccc(Cl)c(Cl)c1
[6]
  AC50: 16.6 µM (active)
[7]
  AC50: 0.08 µM (active)

## CS(=O)(=O)Nc1ccc2c(c1)[C@@H]1C[C@H](CC(=O)NCC3CC3)O[C@H](CO)[C@@H]1O2
[8]
  AbsAC35: 85.99 µM

## COc1ccc(C#Cc2ccc(C(=O)N3CCC[C@@H](O)C3)cc2)cc1
[9]
  IC50: 0.597 µM

## O=c1nc(Nc2ccc(OCc3ccccc3)cc2)sc2ncc(F)cc12
[10]
  IC50: 1.42 µM (active)

## O=C(Cc1ccc2ccccc2c1)NO
[11]
  IC50: 5.8 µM (active)
